Source: article PMC9516332 (Frontiers in Oncology, 2022)
Read-outs that look alike come from different tables or passages of the source.

Key:
134 cancer cell lines = test: Cell viability assay (ATPlite, 72 hours), IC50 on cancer cell line panel
AP-1060 (ETV6-NTRK3) = test: Cell viability assay

Q: `CO[C@]1(C(=O)N[C@@H](C)c2ccc(-n3cc(F)cn3)nc2)CC[C@H](c2nc(C)cc(Nc3cc(C)[nH]n3)n2)CC1` [pralsetinib] was tested. Which IC50 (134 cancer cell lines; Homo sapiens, MV4-11, read-out: IC50 in cell proliferation assay, MV4-11 cell line (FLT3 ITD)) did it give?
A: 0.087 µM

Q: And the IC50 (134 cancer cell lines; Homo sapiens, MeWo, read-out: IC50 in cell proliferation assay, MeWo cell line)?
A: 6.97 µM

Q: And the IC50 (134 cancer cell lines; Homo sapiens, NCCIT, read-out: IC50 in cell proliferation assay, NCC-IT cell line)?
A: 1.66 µM

Q: What about the IC50 (134 cancer cell lines; Homo sapiens, NCI-H82, read-out: IC50 in cell proliferation assay, cell line NCI-H82) of the same compound?
A: 10.9 µM

Q: And the IC50 (134 cancer cell lines; Homo sapiens, NCI-H460, read-out: IC50 in cell proliferation assay, NCI-H460 cell line)?
A: 9.4 µM

Q: What about the IC50 (134 cancer cell lines; Homo sapiens, NCI-H661, read-out: IC50 in cell proliferation assay, NCI-H661 cell line) of the same compound?
A: 2.1 µM

Q: And the IC50 (134 cancer cell lines; Homo sapiens, NCI-H716, read-out: IC50 in cell proliferation assay, cell line NCI-H716 (FGFR2-COL14A1))?
A: 0.244 µM

Q: What about the IC50 (134 cancer cell lines; Homo sapiens, NCI-H1650, read-out: IC50 in cell proliferation assay, NCI-H1650 cell line (EGFR exon19del)) of the same compound?
A: 2.56 µM

Q: And the IC50 (134 cancer cell lines; Homo sapiens, NCI-H1975, read-out: IC50 in cell proliferation assay, NCI-H1975 cell line (EGFR p.L858R + p.T790M))?
A: 6.51 µM

Q: What about the IC50 (134 cancer cell lines; Homo sapiens, NCI-H2228, read-out: IC50 in cell proliferation assay, NCI-H2228 cell line (EML4-ALK)) of the same compound?
A: 7.94 µM

Q: And the IC50 (134 cancer cell lines; Homo sapiens, OVCAR-3, read-out: IC50 in cell proliferation assay, cell line OVCAR-3)?
A: 4.11 µM

Q: What about the IC50 (134 cancer cell lines; Homo sapiens, PFSK-1, read-out: IC50 in cell proliferation assay, cell line PFSK-1) of the same compound?
A: 16.7 µM

Q: And the IC50 (134 cancer cell lines; Homo sapiens, RL95-2, read-out: IC50 in cell proliferation assay, cell line RL95-2 (EGFR p.A289V))?
A: 1.39 µM

Q: What about the IC50 (134 cancer cell lines; Homo sapiens, RPMI-7951, read-out: IC50 in cell proliferation assay, cell line RPMI-7951 (BRAF p.V600E)) of the same compound?
A: 2.79 µM

Q: And the IC50 (134 cancer cell lines; Homo sapiens, RS4-11, read-out: IC50 in cell proliferation assay, cell line RS4;11)?
A: 14.7 µM

Q: What about the IC50 (134 cancer cell lines; Homo sapiens, Rec1, read-out: IC50 in cell proliferation assay, cell line REC-1) of the same compound?
A: 6.58 µM

Q: And the IC50 (134 cancer cell lines; Homo sapiens, SHP77, read-out: IC50 in cell proliferation assay, cell line SHP-77)?
A: > 31.6 µM

Q: And the IC50 (134 cancer cell lines; Homo sapiens, SK-BR-3, read-out: IC50 in cell proliferation assay, cell line SK-BR-3 (ERBB2 amplification))?
A: 3.88 µM

Q: What about the IC50 (134 cancer cell lines; Homo sapiens, SK-N-AS, read-out: IC50 in cell proliferation assay, cell line SK-N-AS) of the same compound?
A: 4.65 µM

Q: And the IC50 (134 cancer cell lines; Homo sapiens, SK-N-FI, read-out: IC50 in cell proliferation assay, cell line SK-N-FI)?
A: 4.14 µM

Q: What about the IC50 (134 cancer cell lines; Homo sapiens, SK-N-MC, read-out: IC50 in cell proliferation assay, cell line SK-N-MC) of the same compound?
A: 10.4 µM

Q: And the IC50 (134 cancer cell lines; Homo sapiens, SK-N-SH, read-out: IC50 in cell proliferation assay, cell line SK-N-SH (ALK p.F1174L))?
A: 1.65 µM

Q: And the IC50 (134 cancer cell lines; Homo sapiens, SNU-5, read-out: IC50 in cell proliferation assay, cell line SNU-5 (MET amplification))?
A: > 31.6 µM

Q: And the IC50 (134 cancer cell lines; Homo sapiens, SNU-16, read-out: IC50 in cell proliferation assay, cell line SNU-16 (FGFR2 amplification))?
A: 0.135 µM

Q: What about the IC50 (134 cancer cell lines; Homo sapiens, SNU-C2B, read-out: IC50 in cell proliferation assay, cell line SNU-C2B (EGFR p.R165Q)) of the same compound?
A: 19.6 µM

Q: And the IC50 (134 cancer cell lines; Homo sapiens, SU-DHL-1, read-out: IC50 in cell proliferation assay, cell line SU-DHL-1 (NPM1-ALK))?
A: 11.4 µM

Q: And the IC50 (134 cancer cell lines; Homo sapiens, SU-DHL-6, read-out: IC50 in cell proliferation assay, cell line SU-DHL-6)?
A: 1.93 µM

Q: And the IC50 (134 cancer cell lines; Homo sapiens, SUP-T1, read-out: IC50 in cell proliferation assay, cell line SUP-T1)?
A: 30.7 µM

Q: What about the IC50 (134 cancer cell lines; Homo sapiens, SW48, read-out: IC50 in cell proliferation assay, cell line SW48 (EGFR p.G719S)) of the same compound?
A: 4.57 µM

Q: What about the IC50 (134 cancer cell lines; Homo sapiens, SW480, read-out: IC50 in cell proliferation assay, cell line SW480) of the same compound?
A: 15.4 µM

Q: What about the IC50 (134 cancer cell lines; Homo sapiens, SW626, read-out: IC50 in cell proliferation assay, cell line SW626) of the same compound?
A: 9.63 µM

Q: What about the IC50 (134 cancer cell lines; Homo sapiens, SW780, read-out: IC50 in cell proliferation assay, cell line SW780 (FGFR3-BAIAP2L1)) of the same compound?
A: 1.41 µM

Q: What about the IC50 (134 cancer cell lines; Homo sapiens, SW837, read-out: IC50 in cell proliferation assay, cell line SW837) of the same compound?
A: 12.9 µM

Q: What about the IC50 (134 cancer cell lines; Homo sapiens, SW872, read-out: IC50 in cell proliferation assay, cell line SW872 (BRAF p.V600E)) of the same compound?
A: 5.58 µM

Q: What about the IC50 (134 cancer cell lines; Homo sapiens, SW900, read-out: IC50 in cell proliferation assay, cell line SW900) of the same compound?
A: 5.11 µM

Q: What about the IC50 (134 cancer cell lines; Homo sapiens, SW948, read-out: IC50 in cell proliferation assay, cell line SW948) of the same compound?
A: 15.1 µM

Q: What about the IC50 (134 cancer cell lines; Homo sapiens, SW982, read-out: IC50 in cell proliferation assay, cell line SW982 (BRAF p.V600E)) of the same compound?
A: 1.61 µM

Q: And the IC50 (134 cancer cell lines; Homo sapiens, SW-620, read-out: IC50 in cell proliferation assay, cell line SW620)?
A: 2.46 µM

Q: And the IC50 (134 cancer cell lines; Homo sapiens, T98G, read-out: IC50 in cell proliferation assay, cell line T98G)?
A: 0.785 µM

Q: And the IC50 (134 cancer cell lines; Homo sapiens, TCC-SUP, read-out: IC50 in cell proliferation assay, cell line TCCSUP)?
A: 5.55 µM

Q: What about the IC50 (134 cancer cell lines; Homo sapiens, THP-1, read-out: IC50 in cell proliferation assay, cell line THP-1) of the same compound?
A: > 31.6 µM

Q: And the IC50 (134 cancer cell lines; Homo sapiens, U2OS, read-out: IC50 in cell proliferation assay, cell line U2OS)?
A: 2.67 µM

Q: And the IC50 (134 cancer cell lines; Homo sapiens, U-87 MG, read-out: IC50 in cell proliferation assay, cell line U-87MG ATCC)?
A: 20.8 µM

Q: And the IC50 (134 cancer cell lines; Homo sapiens, U-118-MG, read-out: IC50 in cell proliferation assay, cell line U-118MG)?
A: 2.78 µM

Q: What about the IC50 (134 cancer cell lines; Homo sapiens, UMUC3, read-out: IC50 in cell proliferation assay, cell line UM-UC-3) of the same compound?
A: 2.83 µM

Q: And the IC50 (134 cancer cell lines; Hs766T, read-out: IC50 in cell proliferation assay, Hs 766T cell line)?
A: 3.3 µM

Q: What about the IC50 (134 cancer cell lines; L-82, read-out: IC50 in cell proliferation assay, L-82 cell line (NPM1-ALK)) of the same compound?
A: 11.1 µM

Q: What about the IC50 (134 cancer cell lines; Rh30, read-out: IC50 in cell proliferation assay, cell line Rh30) of the same compound?
A: 6.62 µM

Q: What about the IC50 (134 cancer cell lines; read-out: IC50 in cell proliferation assay, 11-18 cell line (EGFR p.L858R)) of the same compound?
A: 2.07 µM

Q: And the IC50 (134 cancer cell lines; read-out: IC50 in cell proliferation assay, Hs 852.T cell line)?
A: 10.8 µM

Q: What about the IC50 (134 cancer cell lines; read-out: IC50 in cell proliferation assay, JAR cell line) of the same compound?
A: 5.16 µM

Q: What about the IC50 (134 cancer cell lines; read-out: IC50 in cell proliferation assay, cell line 5637) of the same compound?
A: 4.55 µM

Q: And the IC50 (134 cancer cell lines; read-out: IC50 in cell proliferation assay, cell line A-388)?
A: 2.11 µM

Q: What about the IC50 (134 cancer cell lines; read-out: IC50 in cell proliferation assay, cell line DB) of the same compound?
A: 13.3 µM

Q: And the IC50 (134 cancer cell lines; read-out: IC50 in cell proliferation assay, cell line DEL (NPM1-ALK))?
A: 16.1 µM

Q: And the IC50 (134 cancer cell lines; read-out: IC50 in cell proliferation assay, cell line ES-2 (BRAF p.V600E))?
A: 7.67 µM

Q: What about the IC50 (134 cancer cell lines; read-out: IC50 in cell proliferation assay, cell line PA-1) of the same compound?
A: 4.5 µM

Q: What about the IC50 (134 cancer cell lines; read-out: IC50 in cell proliferation assay, cell line PC-3) of the same compound?
A: 6.08 µM

Q: What about the IC50 (134 cancer cell lines; read-out: IC50 in cell proliferation assay, cell line RD) of the same compound?
A: 14.6 µM

Q: What about the IC50 (134 cancer cell lines; read-out: IC50 in cell proliferation assay, cell line RKO (BRAF p.V600E)) of the same compound?
A: 11.3 µM

Q: And the IC50 (134 cancer cell lines; read-out: IC50 in cell proliferation assay, cell line RL)?
A: 5.67 µM

Q: And the IC50 (134 cancer cell lines; read-out: IC50 in cell proliferation assay, cell line RT-4 (FGFR3-TACC3))?
A: 0.453 µM

Q: What about the IC50 (134 cancer cell lines; read-out: IC50 in cell proliferation assay, cell line SR (NPM1-ALK)) of the same compound?
A: 8.14 µM

Q: What about the IC50 (134 cancer cell lines; read-out: IC50 in cell proliferation assay, cell line T24) of the same compound?
A: 6.55 µM

Q: And the IC50 (134 cancer cell lines; read-out: IC50 in cell proliferation assay, cell line TT (RET p.C634W))?
A: 0.055 µM

Q: And the IC50 (134 cancer cell lines; read-out: IC50 in cell proliferation assay, cell line VA-ES-BJ)?
A: 7.77 µM

Q: What about the “higher sensitivity of AP-1060 to pralsetinib compared to selpercatinib” value (AP-1060 (ETV6-NTRK3); cell viability) of the same compound?
A: ~20 fold

Q: And the IC50 (AP-1060 (ETV6-NTRK3); read-out: IC50 in cell proliferation assay)?
A: 0.206 µM
